Assay results reported in patent US20230233569A1 (Revolution Medicines, Inc., priority 2020, published 2023).
Like-named read-outs stand apart in the source and are kept apart here.

What was measured:
NCI-H358 (K-Ras G12C) = test: CellTiter-Glo cell viability assay, 5-day treatment; type: cell-based; conditions: Homo sapiens, NCI-H358, 120 h, 5-day treatment; read-out: H358 Cell Viability assay data (K-Ras G12C, IC50)
How it was run: (§1)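 Seeded cells received test compound by direct dispensing. On day 5 the plates sat at room temperature approximately 30 minutes, then luminescence was measured. Data were normalized to DMSO and curve-fitted with four parameters.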

Capan-1 (K-Ras G12V) = test: as above; type: cell-based; conditions: Homo sapiens, CAPAN-1, 120 h, 5-day treatment; read-out: Capan-1 Cell Viability assay data (K-Ras G12V, IC50)
How it was run: as §1

KRAS G12C = KRAS G12C (Homo sapiens, UniProt P01116+P62937, G12C); test: Disruption of BRAF RBD interaction with Ras (FRET / MOA assay, with Cyclophilin A); type: biochemical
How it was run: (§2)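 Biochemical TR-FRET disruption assay: nucleotide-loaded K-Ras with Cyclophilin A and a BRAF RBD construct, compound titrated over 10 points from 30 μM (final).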

NRAS G12C = NRAS G12C (Homo sapiens, UniProt P01111+P62937, G12C); test: as above; type: biochemical
KRAS G12S = KRAS G12S (Homo sapiens, UniProt P01116+P62937, G12S); test: as above; type: biochemical
How it was run: as §2

KRAS G12V = KRAS G12V (Homo sapiens, UniProt P01116+P62937, G12V); test: as above; type: biochemical
How it was run: as §2

KRAS G13D = KRAS G13D (Homo sapiens, UniProt P01116+P62937, G13D); test: as above; type: biochemical
How it was run: as §2

KRAS G12D = KRAS G12D (Homo sapiens, UniProt P01116+P62937, G12D); test: as above; type: biochemical
How it was run: as §2

KRAS G13C = KRAS G13C (Homo sapiens, UniProt P01116+P62937, G13C); test: as above; type: biochemical
How it was run: as §2

KRAS WT = KRAS WT (Homo sapiens, UniProt P01116+P62937); test: as above; type: biochemical
How it was run: as §2

[1] = read-out: KRAS G12C FRET data, IC50
[2] = NRAS G12C, read-out: NRAS G12C FRET data IC50
[3] = read-out: KRAS G12S FRET data, IC50
[4] = KRAS G12V, read-out: KRAS G12V FRET data IC50
[5] = KRAS G13D, read-out: KRAS G13D FRET data IC50
[6] = read-out: KRAS G12D FRET data, IC50
[7] = read-out: KRAS G13C FRET data, IC50
[8] = KRAS WT, read-out: KRAS WT FRET data IC50

Sequence of KRAS G12S (P01116 1-169 isoform P01116-2 G12S limits assumed): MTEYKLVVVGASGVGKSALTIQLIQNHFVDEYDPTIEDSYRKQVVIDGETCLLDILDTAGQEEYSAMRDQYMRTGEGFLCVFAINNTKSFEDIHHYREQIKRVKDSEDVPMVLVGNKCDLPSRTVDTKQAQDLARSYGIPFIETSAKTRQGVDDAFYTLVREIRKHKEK
Sequence of KRAS G12S (P62937 whole entry): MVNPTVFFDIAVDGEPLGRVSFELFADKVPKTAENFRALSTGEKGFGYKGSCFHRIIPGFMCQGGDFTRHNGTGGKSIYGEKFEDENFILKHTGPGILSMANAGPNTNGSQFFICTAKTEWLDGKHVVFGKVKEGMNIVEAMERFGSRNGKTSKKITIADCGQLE
Sequence of KRAS G12D (P01116 1-169 isoform P01116-2 G12D limits assumed): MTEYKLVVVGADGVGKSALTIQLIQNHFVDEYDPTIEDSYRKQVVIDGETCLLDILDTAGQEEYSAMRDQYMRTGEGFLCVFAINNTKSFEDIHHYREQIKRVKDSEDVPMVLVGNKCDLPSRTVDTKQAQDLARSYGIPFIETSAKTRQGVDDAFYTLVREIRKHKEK
Sequence of KRAS G12D (P62937 whole entry): as the sequence (P62937 whole entry) above
Sequence of KRAS G12V (P01116 1-169 isoform P01116-2 G12V limits assumed): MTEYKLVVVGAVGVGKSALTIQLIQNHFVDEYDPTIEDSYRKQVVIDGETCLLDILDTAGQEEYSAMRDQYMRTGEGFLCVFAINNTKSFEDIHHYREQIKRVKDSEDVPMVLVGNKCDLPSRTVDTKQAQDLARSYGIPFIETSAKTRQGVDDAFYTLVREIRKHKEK
Sequence of KRAS G12V (P62937 whole entry): as the sequence (P62937 whole entry) above
Sequence of KRAS G12C (P01116 1-169 isoform P01116-2 G12C): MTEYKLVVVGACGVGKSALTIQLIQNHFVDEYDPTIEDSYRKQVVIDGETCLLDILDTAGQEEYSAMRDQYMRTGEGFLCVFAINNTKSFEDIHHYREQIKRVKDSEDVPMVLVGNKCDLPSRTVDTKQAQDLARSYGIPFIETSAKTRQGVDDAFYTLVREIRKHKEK
Sequence of KRAS G12C (P62937 whole entry): as the sequence (P62937 whole entry) above
Sequence of KRAS WT (P01116 1-169 isoform P01116-2 limits assumed): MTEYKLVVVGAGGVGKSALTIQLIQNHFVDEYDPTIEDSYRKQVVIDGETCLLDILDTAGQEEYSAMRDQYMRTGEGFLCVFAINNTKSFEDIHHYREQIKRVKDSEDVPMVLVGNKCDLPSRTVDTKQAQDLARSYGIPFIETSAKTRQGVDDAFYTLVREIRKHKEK
Sequence of KRAS WT (P62937 whole entry): as the sequence (P62937 whole entry) above
Sequence of KRAS G13D (P01116 1-169 isoform P01116-2 G13D limits assumed): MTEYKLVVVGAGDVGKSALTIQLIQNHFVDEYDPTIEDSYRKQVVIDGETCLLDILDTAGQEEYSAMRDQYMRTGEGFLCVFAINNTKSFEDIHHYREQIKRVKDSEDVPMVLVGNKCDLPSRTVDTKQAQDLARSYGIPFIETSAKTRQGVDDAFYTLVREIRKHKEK
Sequence of KRAS G13D (P62937 whole entry): as the sequence (P62937 whole entry) above
Sequence of NRAS G12C (P01111 whole entry G12C): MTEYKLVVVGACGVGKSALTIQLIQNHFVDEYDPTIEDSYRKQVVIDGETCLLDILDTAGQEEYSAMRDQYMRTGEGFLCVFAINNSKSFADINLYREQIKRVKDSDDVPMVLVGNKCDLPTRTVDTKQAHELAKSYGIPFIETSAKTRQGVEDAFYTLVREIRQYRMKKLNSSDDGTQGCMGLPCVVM
Sequence of NRAS G12C (P62937 whole entry): as the sequence (P62937 whole entry) above
Sequence of KRAS G13C (P01116 1-169 isoform P01116-2 G13C): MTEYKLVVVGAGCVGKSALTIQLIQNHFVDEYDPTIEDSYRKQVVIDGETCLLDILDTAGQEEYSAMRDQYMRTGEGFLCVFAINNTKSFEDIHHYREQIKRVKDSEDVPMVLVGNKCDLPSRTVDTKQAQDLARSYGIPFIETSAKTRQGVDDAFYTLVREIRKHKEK
Sequence of KRAS G13C (P62937 whole entry): as the sequence (P62937 whole entry) above

| SMILES | IC50 (NCI-H358 (K-Ras G12C)) | IC50 (Capan-1 (K-Ras G12V)) | IC50 (KRAS G12C; [1]) | IC50 (NRAS G12C; [2]) | IC50 (KRAS G12S; [3]) | IC50 (KRAS G12V; [4]) | IC50 (KRAS G13D; [5]) | IC50 (KRAS G12D; [6]) | IC50 (KRAS G13C; [7]) | IC50 (KRAS WT; [8]) | IC50 (KRAS G12C; KRAS G12C FRET data, IC50) | IC50 (NRAS G12C; NRAS G12C FRET data IC50, NRAS G12C) | IC50 (KRAS G12S; KRAS G12S FRET data, IC50) | IC50 (KRAS G12V; KRAS G12V FRET data IC50, KRAS G12V) | IC50 (KRAS G13D; KRAS G13D FRET data IC50, KRAS G13D) | IC50 (KRAS G12D; KRAS G12D FRET data, IC50) | IC50 (KRAS G13C; KRAS G13C FRET data, IC50) | IC50 (KRAS WT; KRAS WT FRET data IC50, KRAS WT) |
| --- | --- | --- | --- | --- | --- | --- | --- | --- | --- | --- | --- | --- | --- | --- | --- | --- | --- | --- |
| CCn1c(-c2cnccc2COC)c2c3cc(ccc31)-c1cc(O)cc(c1)C[C@H](NC(=O)[C@H](C(C)C)N(C)C(=O)[C@@H]1CCOC1)C(=O)N1CCC[C@H](N1)C(=O)OCC(C)(C)C2 [Example A94] | 100 to 1000 nM | 100 to 1000 nM | 100 to 1000 nM | 100 to 1000 nM | 100 to 1000 nM | 100 to 1000 nM | 100 to 1000 nM | 1000 to 10000 nM | 100 to 1000 nM | 100 to 1000 nM | – | – | – | – | – | – | – | – |
| CCn1c(-c2cccnc2[C@H](C)OC)c2c3cc(ccc31)-c1csc(n1)C[C@H](NC(=O)[C@H](C(C)C)N(C)C(=O)N(C)CC(C)C)C(=O)N1CCC[C@H](N1)C(=O)OCC(C)(C)C2 [Example A332] | 100 to 1000 nM | 100 to 1000 nM | 100 to 1000 nM | 100 to 1000 nM | 100 to 1000 nM | 100 to 1000 nM | 100 to 1000 nM | 100 to 1000 nM | 100 to 1000 nM | 100 to 1000 nM | – | – | – | – | – | – | – | – |
| CCn1c(-c2cccnc2[C@H](C)OC)c2c3cc(ccc31)-c1cc(O)cc(c1)C[C@H](NC(=O)[C@H](C(C)C)N(C)C(=O)[C@H]1CCC[C@H]1N)C(=O)N1CCC[C@H](N1)C(=O)OCC(C)(C)C2 (atropisomer, axis not shown) [Example A131] | 10 to 100 nM | 100 to 1000 nM | 10 to 100 nM | 10 to 100 nM | 10 to 100 nM | 100 to 1000 nM | 10 to 100 nM | 10 to 100 nM | 10 to 100 nM | 10 to 100 nM | – | – | – | – | – | – | – | – |
| CCn1c(-c2cnccc2COC)c2c3cc(ccc31)-c1cc(O)cc(c1)C[C@H](NC(=O)[C@H](C(C)C)N(C)C(=O)[C@H]1CCN(C=O)C1)C(=O)N1CCC[C@H](N1)C(=O)OCC(C)(C)C2 [Example A17, (2S)—N-[(8S,14S)-22-ethyl-4-hydroxy-21-[4-(methoxymethyl)pyridin-3-yl]-18,18-dimethyl-9,15-dioxo-16-oxa-10,22,28-triazapentacyclo[18.5.2.1^2,6.1^10,14.0^23,27]nonacosa-1(26),2,4,6(29),20,23(27),24-heptaen-8-yl]-2-{1-[(3S)-1-formylpyrrolidin-3-yl]-N-methylformamido}-3-methylbutanamide] | 1000 to 10000 nM | 1000 to 10000 nM | – | – | – | – | – | – | – | – | 10 to 100 nM | 100 to 1000 nM | 100 to 1000 nM | 100 to 1000 nM | 100 to 1000 nM | 1000 to 10000 nM | 100 to 1000 nM | 100 to 1000 nM |
| CCn1c(-c2cccnc2[C@H](C)OC)c2c3cc(ccc31)-c1cc(O)cc(c1)C[C@H](NC(=O)[C@H](C(C)C)N(C)C(=O)C1NCCC13CC3)C(=O)N1CCC[C@H](N1)C(=O)OCC(C)(C)C2 (some centres unmarked) [Example A228] | 100 to 1000 nM | 100 to 1000 nM | 10 to 100 nM | 10 to 100 nM | 10 to 100 nM | 100 to 1000 nM | 10 to 100 nM | 10 to 100 nM | 10 to 100 nM | 10 to 100 nM | – | – | – | – | – | – | – | – |
| CCN(C(=O)N(C)[C@H](C(=O)N[C@H]1Cc2nc(cs2)-c2ccc3c(c2)c(c(-c2cccnc2[C@H](C)OC)n3CC)CC(C)(C)COC(=O)[C@@H]2CCCN(N2)C1=O)C(C)C)C1CC1 [Example A352] | 10 to 100 nM | 100 to 1000 nM | 100 to 1000 nM | 100 to 1000 nM | 100 to 1000 nM | 100 to 1000 nM | 100 to 1000 nM | 1000 to 10000 nM | 100 to 1000 nM | 100 to 1000 nM | – | – | – | – | – | – | – | – |
| CCn1c(-c2cccnc2[C@H](C)OC)c2c3cc(ccc31)-c1cc(O)cc(c1)C[C@H](NC(=O)[C@H](C(C)C)N(C)C(=O)C1CC13CC3)C(=O)N1CCC[C@H](N1)C(=O)OCC(C)(C)C2 (some centres unmarked) [Example A156] | 10 to 100 nM | 10 to 100 nM | 10 to 100 nM | 10 to 100 nM | 10 to 100 nM | 10 to 100 nM | 100 to 1000 nM | 100 to 1000 nM | 10 to 100 nM | 10 to 100 nM | – | – | – | – | – | – | – | – |
| CCn1c(-c2cnccc2COC)c2c3cc(ccc31)-c1cc(O)cc(c1)C[C@H](NC(=O)[C@H](C(C)C)N(C)C(=O)[C@H]1CCOC1)C(=O)N1CCC[C@H](N1)C(=O)OCC(C)(C)C2 [Example A26] | 100 to 1000 nM | 100 to 1000 nM | 100 to 1000 nM | 100 to 1000 nM | 100 to 1000 nM | 100 to 1000 nM | 100 to 1000 nM | 1000 to 10000 nM | 100 to 1000 nM | 100 to 1000 nM | – | – | – | – | – | – | – | – |
| CCn1c(-c2cccnc2[C@H](C)OC)c2c3cc(ccc31)-c1cc(O)cc(c1)C[C@H](NC(=O)[C@H](C(C)C)N(C)C(=O)N1CC(N(C)C)C1)C(=O)N1CCC[C@H](N1)C(=O)OCC(C)(C)C2 [Example A171] | 100 to 1000 nM | 100 to 1000 nM | 100 to 1000 nM | 100 to 1000 nM | 100 to 1000 nM | 100 to 1000 nM | 100 to 1000 nM | 100 to 1000 nM | 10 to 100 nM | 100 to 1000 nM | – | – | – | – | – | – | – | – |
| CCn1c(-c2cccnc2[C@H](C)OC)c2c3cc(ccc31)-c1cc(O)cc(c1)C[C@H](NC(=O)[C@H](C(C)C)N(C)C(=O)[C@H]1CCN(C(=O)C(C)(C)N(C)C)C1)C(=O)N1CCC[C@H](N1)C(=O)OCC(C)(C)C2 (atropisomer, axis not shown) [Example A114] | 10 to 100 nM | 10 to 100 nM | 10 to 100 nM | 10 to 100 nM | 10 to 100 nM | 10 to 100 nM | 10 to 100 nM | 100 to 1000 nM | 10 to 100 nM | 10 to 100 nM | – | – | – | – | – | – | – | – |
| CCn1c(-c2cccnc2[C@H](C)OC)c2c3cc(ccc31)-c1cc(O)cc(c1)C[C@H](NC(=O)[C@H](C(C)C)N(C)C(=O)[C@H]1CCCN[C@@H]1C)C(=O)N1CCC[C@H](N1)C(=O)OCC(C)(C)C2 [Example A134] | 1000 to 10000 nM | > 10000 nM | 100 to 1000 nM | 100 to 1000 nM | 100 to 1000 nM | 1000 to 10000 nM | 10 to 100 nM | 10 to 100 nM | 10 to 100 nM | 100 to 1000 nM | – | – | – | – | – | – | – | – |
